Counter-ions that a name gives are not always drawn. Like-named read-outs stand apart in the source and are kept apart here.
Key:
[1] = target: T1, recombinant human LTA4 hydrolase (rhLTA4H) (Homo sapiens, UniProt P09960); test: Recombinant human LTA4 hydrolase assay for LTA4 hydrolase inhibitor activity; type: biochemical
T1 construct: made in house; host or cells: Spodoptera frugiperda (Sf-9) cells, baculovirus (pFastBac1)
T1 sequence (P09960 1-611): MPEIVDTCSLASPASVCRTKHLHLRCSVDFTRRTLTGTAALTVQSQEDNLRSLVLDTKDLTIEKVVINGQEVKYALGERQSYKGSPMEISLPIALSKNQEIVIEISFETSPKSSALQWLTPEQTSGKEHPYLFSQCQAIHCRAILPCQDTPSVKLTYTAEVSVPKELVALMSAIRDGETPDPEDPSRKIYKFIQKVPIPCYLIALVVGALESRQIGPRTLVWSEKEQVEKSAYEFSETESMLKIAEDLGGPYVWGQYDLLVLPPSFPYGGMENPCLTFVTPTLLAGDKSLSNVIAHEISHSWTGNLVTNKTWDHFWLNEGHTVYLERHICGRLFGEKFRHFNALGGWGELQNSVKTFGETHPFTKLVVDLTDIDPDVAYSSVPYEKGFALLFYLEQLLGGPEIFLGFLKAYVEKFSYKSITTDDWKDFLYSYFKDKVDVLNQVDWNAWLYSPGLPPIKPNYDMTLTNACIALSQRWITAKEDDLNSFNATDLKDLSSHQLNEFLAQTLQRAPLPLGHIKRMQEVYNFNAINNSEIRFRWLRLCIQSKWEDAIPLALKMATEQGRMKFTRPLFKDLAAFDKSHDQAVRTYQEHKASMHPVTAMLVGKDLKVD
Outline: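 Sf-9-expressed rhLTA4H (36 ng) preincubated 10 min at rt with compound in 0.1 M potassium phosphate pH 7.4, 5 mg/mL fatty-acid-free BSA; 9 ng LTA4 free acid added, 10 min at rt in 225 μL. LTB4 measured by enzyme immunoassay; IC50 from 4-parameter fit, mean of one to three determinations.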

[2] = test system: LTB4 production by calcium ionophore-stimulated murine blood; test: LTB4 production by calcium ionophore-stimulated murine blood for LTA4H inhibitor activity; type: cell-based, CD-1 mice; details: diluted CD-1 mouse whole blood, calcium ionophore A23187, LTB4 by enzyme-linked immunoassay
Protocol: LTB4 Production by Calcium Ionophore-Stimulated Murine Blood for LTA4H Inhibitor Activity
CD-1 mice were sacrificed, and blood was collected in heparin-containing syringes by cardiac puncture. The blood was diluted 1:15 with RPMI-1640 medium, and 200-μL aliquots of the diluted blood were added to wells of a 96-well microtiter plate. LTA4H inhibitor test compounds were prepared at different concentrations in RPMI-1640 medium containing […], and 20 μL of each test solution was added to a well containing diluted whole blood (final DMSO concentration of 0.1%). After the microtiter plate contents were incubated for 15 min at 37° C. in a humidified incubator, calcium ionophore A23187 (Sigma Chemical Co., St. Louis, Mo.) was added to each sample well (final concentration=20 ng/mL). The incubation was continued under the same conditions for an additional 10 min to allow LTB4 formation. The reaction was terminated by centrifugation (833×g, 10 min at 4° C.), and supernatants were analyzed for LTB4 by a commercially available enzyme-linked immunoassay (Cayman Chemical Co.) according to the manufacturer's instructions. Positive controls, under essentially identical conditions but without addition of an inhibitor compound, and negative unstimulated controls, containing all assay components except calcium ionophore, were routinely run in each experiment. IC50 values were determined by fitting the activity data at different compound concentrations to a 4-parameter equation using the Grafit program (Erithacus software).

[3] = test system: neutrophil influx (myeloperoxidase, MPO); test: Murine arachidonic acid-induced inflammation model: neutrophil influx in ear (myeloperoxidase activity); type: in vivo, female Balb/c mice; details: Mus musculus, read-out: % Inh. MPO
Protocol: (§1) Murine Arachidonic Acid-Induced Inflammation Model
(§2) LTA4H inhibitor compounds of the present invention were dissolved in 20% cyclodextran/H2O at a concentration of 3 mg/mL. The solutions were administered by oral gavage to female Balb/c mice weighing approximately 20 grams each (0.2 mL per mouse, 30 mg of LTA4H inhibitor compound per kg). Sixty minutes after being administered an LTA4 inhibitor, each mouse received topical application of 20 μL of arachidonic acid (100 mg/mL in acetone) to the left ear and 20 μL of acetone only to the right ear. After 3 h, the mice were sacrificed, blood was withdrawn in heparinized syringes, and 8 mm ear biopsies were taken. Ear biopsies were weighed to determine edema and then frozen at −80° C. until needed for determination of neutrophil influx.
Neutrophil influx was quantified by measuring the activity of myeloperoxidase (MPO), a neutrophil-specific enzyme. The ear biopsies were homogenized in 0.5 mL extraction buffer (0.3 M sucrose, 0.22% (w/v) hexadecyl trimethyl ammonium bromide (CTAB), and 2.5 mM citrate prepared from 0.5 M citrate stock solution (pH 5.0)). Debris was removed by centrifugation at 14000×g for 10 min. Aliquots of 10 μL of the resulting supernatant were added to wells of a microtiter plate, along with 90-μL aliquots of dilution buffer (10 mM citrate, 0.22% CTAB), followed by addition of 20 μL TMB liquid substrate system (Sigma Chemical Co.) to each sample well. The microtiter plate contents were held at rt for 1 h. The reaction was stopped by addition of 100 μL 1 M H2SO4 to each sample well, and the myeloperoxidase activity in each sample was determined from the absorbance at 405 nm. The background value from the right ear, treated only with acetone, was subtracted from that for the left ear, treated with arachidonic acid in acetone, for each animal. The percent inhibition of neutrophil influx (% lnh. MPO) by compounds of the invention was determined by comparison to animals treated identically, except that the solution administered by oral gavage was devoid of inhibitor compound.

[4] = test system: ex vivo stimulated LTB4 production; test: Murine arachidonic acid-induced inflammation model: ex vivo stimulated LTB4 production in blood; details: Mus musculus; 30 mg/kg oral gavage, female Balb/c mice; blood taken 3 h after arachidonic acid, stimulated ex vivo with A23187; read-out: % Inh. LTB4
Protocol: as §1, §2
One hundred-microliter aliquots of heparinized blood were added to wells of a microtiter plate, along with equal volumes of RPMI-1640 medium, and calcium ionophore A23187 was added to each sample well (final concentration=[…]). The microtiter plate contents were incubated for 10 min at 37° C. in a humidified incubator. The reaction was terminated by centrifugation (833×g, 10 min at 4° C.). Supernatants were analyzed for LTB4 by a commercially available enzyme-linked immunoassay (Cayman Chemical Co.) in accordance with the manufacturer's instructions. The percent inhibition of ex vivo stimulated LTB4 production (% Inh. LTB4) was determined by comparison to animals treated identically except that the solution admininstered by oral gavage was devoid of inhibitor compound.

[5] = recombinant human LTA4H, LTB4 quantified by enzyme-linked immunoassay, average of one to three determinations, read-out: IC50

Compound | IC50 [1, 5] [nM] | IC50 [2] [nM] | further results
O=C(Nc1cccc(O)c1)Oc1ccc(OCCN2CCC(O)(c3ccccc3)CC2)cc1 [Example 11, (3-hydroxy-phenyl)-carbamic acid 4-[2-(4-hydroxy-4-phenyl-piperidin-1-yl)-ethoxy]-phenyl ester] | 0.3 | 12 | 
CCCCN(CCCC)CCCc1ccc(OC(=O)Nc2ccccc2)cc1 [Example 12, Phenyl-carbamic acid 4-(3-dibutylamino-propyl)-phenyl ester hydrochloride] |  | 88 | IC50 [1]: 3 nM
O=C(Cc1ccc(OCCN2CCC(O)(c3ccccc3)CC2)cc1)Nc1ccccc1O [Example 13, N-(2—hydroxy-phenyl)-2-{4-[2-(4-hydroxy-4-phenyl-piperidin-1-yl)-ethoxy]-phenyl}-acetamide] | 10 | 47 | 
O=C(Nc1ccccc1)Oc1ccc(OCCN2CCCCC2)cc1 [Example 15, Phenyl-carbamic acid 4-(2-piperidin-1-yl-ethoxy)-phenyl ester] | 13 |  | inhibition in vivo at 30 mg/kg ([3]; po, 3 h): 92%; inhibition at 30 mg/kg [4]: 78%
O=C(COc1ccc(OCCN2CCCCC2)cc1)c1ccccc1 [Example 24, 1-Phenyl-2-[4-(2-piperidin-1-yl-ethoxy)-phenoxy]-ethanone] | 58 | 202 | 
c1ccc(CCOc2ccc(CCN3CCC(c4nnn[nH]4)CC3)cc2)cc1 [Example 30, 1-[2-(4-Phenethyloxy-phenyl)-ethyl]-4-(1H-tetrazol-5-yl)-piperidine] | 27 | 169 | 
O=C(O)CCN(CCc1ccc(OCCc2ccccc2)cc1)C1CC1 [Example 35, 3-{Cyclopropyl-[2-(4-phenethyloxy-phenyl)-ethyl]-amino}-propionic acid trifluoroacetic acid salt] | 0.5 |  | inhibition in vivo at 30 mg/kg ([3]; 30 mg/kg oral gavage 60 min before topical arachidonic acid to ear, female Balb/c mice, ear biopsies after 3 h): 92%; inhibition at 30 mg/kg [4]: 84%
O=C(Nc1ccccc1)Oc1ccc(OCCN2CCC(O)(c3ccccc3)CC2)cc1 [Example 47, Phenyl-carbamic acid 4-[2-(4-hydroxy-4-phenyl-piperidin-1-yl)-ethoxy]-phenyl ester] | 1 |  | inhibition in vivo at 30 mg/kg ([3]; po, 3 h): 95%; inhibition at 30 mg/kg [4]: 80%
O=C(Nc1ccccc1)Oc1ccc(OCCN2CCC(CO)CC2)cc1 [Example 51, Phenyl-carbamic acid 4-[2-(4-hydroxymethyl-piperidin-1-yl)-ethoxy]-phenyl ester] | 4 | 12 | 
O=C(Nc1ccsc1)Oc1ccc(OCCN2CCCCC2)cc1 [Example 64, Thiophen-3-yl-carbamic acid 4-(2-piperidin-1-yl-ethoxy)-phenyl ester] | 3 | 48 | 
c1ccc(CCOc2ccc(OCCN3CCCCC3)cc2)cc1 [Example 67, 1-[2-(4-Phenethyloxy-phenoxy)-ethyl]-piperidine] | 23 | 175 | 
c1ccc2c(c1)CC(Oc1ccc(OCCN3CCCCC3)cc1)C2 [Example 69, 1-{2-[4-(Indan-2-yloxy)-phenoxy]-ethyl}-piperidine] | 20 | 215 | 
NC(=O)C1CCN(CCc2ccc(OCCc3ccccc3)cc2)CC1 [Example 79, 1-[2-(4-Phenethyloxy-phenyl)-ethyl]-piperidine-4-carboxylic acid amide] | 50 | 192 | 
CS(=O)(=O)NC1CCN(Cc2ccc(OCCc3ccccc3)cc2)CC1 [Example 93, N-[1-(4-Phenethyloxy-benzyl)-piperidin-4-yl]methanesulfonamide] | 18 | 16 | 
c1ccc(CCOc2ccc(CN3CCC(c4nnn[nH]4)CC3)cc2)cc1 [Example 104, 1-(4-Phenethyloxy-benzyl)-4-(1H-tetrazol-5-yl)-piperidine] | 61 | 284 | 
O=C1CCCN1C1CCN(Cc2ccc(OCCCc3ccccc3)cc2)CC1 [Example 107, 1-{1-[4-(3-Phenyl-propoxy)-benzyl]-piperidin-4-yl}-pyrrolidin-2-one] | 5 | 33 | 
CC(=O)NC1CCN(Cc2ccc(OCCc3ccccc3)cc2)CC1 [Example 113, N-[1-(4-Phenethyloxy-benzyl)-piperidin-4-yl]-acetamide] | 13 | 56 | 
CS(=O)(=O)NC1CCN(Cc2ccc(OCCCc3ccccc3)cc2)CC1 [Example 119, N-{1-[4-(3-Phenyl-propoxy)-benzyl]-piperidin-4-yl}-methanesulfonamide] | 19 | 93 | 
CC(=O)NC1CCN(Cc2ccc(OCCCc3ccccc3)cc2)CC1 [Example 120, N-{1-[4-(3-Phenyl-propoxy)-benzyl]-piperidin-4-yl}-acetamide] | 25 | 126 | 
O=C(Oc1ccc(OCCN2CCCCC2)cc1)C1Cc2ccccc2C1 [Example 124, Indan-2-carboxylic acid 4-(2-piperidin-1-yl-ethoxy)-phenyl ester] | 184 |  | 
OC1c2ccccc2CC1Oc1ccc(OCCN2CCCCC2)cc1 (stereo not shown) [Example 125, 2-[4-(2-Piperidin-1-yl-ethoxy)-phenoxy]-indan-1-ol] | 192 |  | 
O=C1c2ccccc2CC1Oc1ccc(OCCN2CCCCC2)cc1 (stereo not shown) [Example 126, 2-[4-(2-Piperidin-1-yl-ethoxy)-phenoxy]-indan-1-one] | 64 |  | 
Fc1cccc(CCOc2ccc(OCCN3CCCCC3)cc2)c1 [Example 165, 1-(2-{4-[2-(3-Fluoro-phenyl)-ethoxy]-phenoxy}-ethyl)-piperidine] | 900 |  | 
Fc1ccc(CCOc2ccc(OCCN3CCCCC3)cc2)cc1 [Example 166, 1-(2-{4-[2-(4-Fluoro-phenyl)-ethoxy]-phenoxy}-ethyl)-piperidine] | 248 |  | 

Source: patent publication US20060223792A1, “Phenyl and pyridyl LTA4H modulators” (priority 2005, published 2006)
